Results: patent publication US6376688B1, “Modified polyunsaturated fatty acids” (Peptide Technology Limited, priority 1994, dated 2002)
Read-outs that look alike come from different tables or passages of the source.

How the values were obtained:
[1] = tested on: chloroquine sensitive P. falciparum; assay: Direct antimalarial activity of novel fatty acids (malaria growth inhibition, 3H-hypoxanthine); assay type: cell-based
Protocol: The plates were then incubated overnight. Individual well contents were collected onto glass filter paper and incorporated 3H measured in a liquid scintillation counter. Percent growth inhibition of the parasite was then calculated.

[2] = tested on: TNFα production; assay: PHA-induced TNFα production by mononuclear cells (ELISA); assay type: cell-based, human
Protocol: (§1) Mononuclear cells were separated from peripheral blood of normal human donors as described by Ferrante and Thong (1978. . . ). The mononuclear cells were resuspended in RPMI-1640 containing 20% human AB serum and placed into 96 well microtrays (50 μl per well, cell density […]). Fatty acid (66 μm) was then added in 50 μl and pre-incubated with the cells for 30 min at 37° C. in 5% CO2. Mitogen (PHA, ConA, PWM, Staph. aureus) was then added in 100 μl and the cells incubated for 66 hours at 37° C. in 5% CO2 before the addition of tritiated thymidine (1 μCi/well). After a total of 72 h in culture the cells were harvested and proliferation (thymidine incorporation) and supernatant's assayed for the presence of cytokines. Cytokine levels in culture supernatants were determined by specific ELISA using anti-cytokine antibodies. The following cytokine levels were determined TNFα, TNFβ, interferon-γ, IL-1β, IL-2.

[3] = tested on: human umbilical vein endothelial cells; assay: TNFα-induced expression of E-selectin (ELAM-1) by human umbilical vein endothelial cells; assay type: cell-based; conditions: FIG. 5
Protocol: Human umbilical cord endothelial cells (5×10^4.passage 1) were plated onto the centre 60 wells of 96 well microtrays, the remaining wells were filled with pyrongen-free distilled water to reduce evaporation in the wells containing cells. The cells were fed with fresh medium (M199 supplemented with 20% FCS and endothelial cell growth supplement) every second day until confluent. On the day preceding the assay the cells were washed with HBSS and re-fed. At the time of assay the medium was aspirated and fatty acides prepared in media were added to each well and incubated for various times as shown in FIGS. At 37-0-C in 5% CO2. After this incubation the cells were washed and treated with either TNF or PMA before being washed three times in PBS and fixed (100 μl, 0.025% glutaraldehyde in PBS, overnight at 4° C.). The wells were washed with PBS and either anti-ELAM (Becton-Dickinson, 100 μl, 1/1.000 in M199 containing 20% FCS) or anti-ICAM (Immunotech, 100 μl, […] in M199 containing 20% FCS) was added and incubated for 1 hour at room temperature after which the wells were washed with PBS ant 100 μl of rabbit anti-mouse Ig-HRP conjugate was added (1/1.000. Dako). A further incubation at room temperature for one hour followed before the plates were washed three time prior to the addition of 100 μl of the substrate (ABTS). Colour development was measured at 410 nm in a microplate reader.

[4] = tested on: P. falciparum; assay: Fatty acid stimulated neutrophil-mediated anti-malarial activity; assay type: cell-based; conditions: for inhibition relative to 22:6 (%) at 16 µM: Plasmodium falciparum
Protocol: To overcome fatty acid insolubility in aqueous solution mixed dipalmitoyl phophatidylcholine (DPC, 400 μg): fatty acid (100 μg) micells were prepared in HBSS by sonication. Neutrophils were pretreated for 30 min at 37° C. In some experiments PUFA were solubilized in ethanol. Aliquots of RBC (5×10^6 with […] parasitaemia) was mixed with neutrophils […] in the wells of a 96-well microtitre plate and than incubated for 2 hr at 37° C. in 5% CO2 in air before adding 1 μCi of 3H-hypoxanthine. The plates were then incubated overnight. Individual well contents were collected onto glass filter paper and incorporated 3H measured in a liquid scintillation counter. Percent growth inhibition of the parasite was then calculated.

[5] = tested on: cytokine production (TNFα, interferon, IL-2); assay: PHA-induced cytokine production by human peripheral blood mononuclear cells (FIG. 3, FIG. 4); assay type: cell-based; conditions: macrophage and T cell-derived cytokines
Protocol: as §1, with “cytokines.” for “cytokines. Cytokine levels in culture supernatants were determined by specific ELISA using anti-cytokine antibodies. The following cytokine levels were determined TNFα, TNFβ, interferon-γ, IL-1β, IL-2.”
Cytokine levels in culture supernatants were determined by specific ELISA using anti-cytokine antibodies. The following cytokine levels were determined TNFα, TNFβ, interferon-γ, IL-1β, IL-2.

[6] = Table 5, second printing (stands where Table 6 is expected)
[7] = neutrophil-mediated killing of P. falciparum, Table 2

Row | Compound | EC50 ([1]; Plasmodium falciparum) [µM] | EC50 [1] [µM] | % INHIBITION OF CYTOKINE PRODUCTION (PUFA AT 20 μM) ([2]; Table 5, first printing) [%] | % INHIBITION OF CYTOKINE PRODUCTION (PUFA AT 20 μM) [2, 6] [%] | further results
1 | CC/C=C\CC(O)/C=C/C=C\CCCCCCCCOCC(=O)O (stereo not drawn) [16-OH-β-oxa 21:3 (n-3), Z,E,Z-(13-Hydroxy-9, 11, 15-octadecatrienyloxy)acetic acid] | 40 | – | – | – | inhibition at 20 µM ([2]; Homo sapiens, PUFA at 20 μM, Table 5, read-out: % INHIBITION OF CYTOKINE PRODUCTION (PUFA AT 20 μM)): 68%
2 | CCCCCC=CCC=CCC=CCC=CCCCC(=O)O [20:4, 5,8,11,14-Eicosatetraenoic acid] | – | – | – | – | effect on TNFα-induced expression of E-selectin [3]: inhibit TNFα-induced expression of E-selection
3 | CCCCC/C=C\C/C=C\C/C=C\CCCCCSCCC(=O)O [γ-thia 22.3 (n-6), Z,Z,Z-(6,9,12-Octadecatrienylthio)propionic acid] | – | 45 | 41 | 41 | –
4 | Z,Z,Z,Z-(6,9,12-Octadecatrienylthio)acetic acid [β-thia 21:3 (n-6)] | – | 30 to 50 | 17 | 17 | –
5 | CCCCC/C=C\C/C=C\C/C=C\C/C=C\CCCCSC(CC(=O)O)C(=O)O (stereo not drawn) [α-carboxymethyl-β-thia 23.4 (n-6)] | – | 50 | – | – | –
6 | CC/C=C\C/C=C\C/C=C\CCCCCCCCSCCC(=O)O [γ-thia 22.3 (n-3), Z,Z,Z-(9,12,15-Octadecatrienylthio)proponionic acid] | – | 45 | 25 | 25 | –
7 | CCCCCC(O)/C=C/C=C\C/C=C\CCCCCOCC(=O)O (stereo not drawn) [16-OH-β-oxa 21:3 (n-6), Z,Z,E-(13-Hydroxy-6,9,11-octadecatienyloxy)acetic acid] | – | 50 | 71 | 71 | % INHIBITION RELATIVE TO 22:6 AT 16 μM [4, 7]: 33%
8 | CCC=CCC=CCC=CCC=CCC=CCCCC(=O)O [20:5, 5,8, 11, 14, 17-eicosapentaenoic] | – | – | – | – | effect on PHA-induced cytokine production [5]: inhibit in vitro production of macrophage and T cell-derived cytokines
9 | CCCCC/C=C\C/C=C\C/C=C\C/C=C\CCCCOCC(=O)O [β-oxa 23.4 (n-6), Z,Z,Z,Z(5,8, 11, 14-Eicosatetraenyloxy) acetic acid] | – | < 30 | 25 | 25 | –
10 | Z,Z,Z,Z-(5,8,11,14-Eicosatetraenylthio) propionic acid [γ-thia 24.4 (n-6)] | – | 15 | 34 | 34 | % INHIBITION RELATIVE TO 22:6 AT 16 μM ([4]; Table 2, second printing (stands where Table 3 is expected)): 91%; % INHIBITION RELATIVE TO 22:6 AT 16 μM ([4]; Table 2, third printing (stands where Table 4 is expected)): 91%; % INHIBITION RELATIVE TO 22:6 AT 16 μM [4, 7]: 91%
11 | CCCCC/C=C\C/C=C\C/C=C\C/C=C\CCCCSCC(=O)O [β-thia 23:4 (n-6), Z,Z,Z,Z-(5,8,11,14-Eicosatetraenylthio) acetic acid] | 15 to 30 | – | – | 35 | inhibition relative to 22:6 (%) at 16 µM [4, 7]: 150%
12 | CCC=CCC=CCC=CCC=CCC=CCC=CCCC(=O)O [22:6, 4,7, 10, 13, 16, 19-docosahexaenoic acid] | – | – | – | – | effect on PHA-induced cytokine production [5]: inhibit in vitro production of macrophage and T cell-derived cytokines
13 | CC/C=C\C/C=C\C/C=C\C/C=C\C/C=C\C/C=C\CCCOCC(=O)O [β-oxa 25.6 (n-3), Z,Z,Z,Z,Z,Z-(4,7, 10, 13, 16, 19-Docosahexaenyloxy) acetic acid] | < 60 | – | – | – | –
14 | CC/C=C\C/C=C\C/C=C\CCCCCCCCOCC(=O)O [β-oxa 21:3 (n-3), Z,Z,Z-(9, 12, 15-Octadecatrienyloxy) acetic acid] | 30 | – | – | 39 | inhibition relative to 22:6 (%) at 16 µM [4, 7]: 45%
15 | CC/C=C\C/C=C\C/C=C\CCCCCCCCSCC(=O)O [β-thia 21:3 (n-3), Z,Z,Z-(9,12,15-Octadecatrienylthio)acetic acid] | 30 to 35 | – | – | 17 | inhibition relative to 22:6 (%) at 16 µM [4, 7]: 73%
16 | Z,Z,Z,Z,Z,Z-(9,12,15-Octadecatrienylthio)acetic acid [β-thia 25.6 (n-3)] | – | 25 | 90 | 90 | % INHIBITION RELATIVE TO 22:6 AT 16 μM [4, 7]: 47%
17 | CC/C=C\C/C=C\C/C=C\C/C=C\CCCCCOCC(=O)O [β-oxa 21:4 (n-3), Z,Z,Z,Z-(6,9, 12, 15-Octadecatetraenyloxy) acetic acid] | 40 | – | – | – | inhibition relative to 22:6 (%) at 16 µM [4, 7]: 85%
18 | CCCCC/C=C\C/C=C\C/C=C\CCCCCOCC(=O)O [β-oxa 21:3 (n-6), Z,Z,Z-(6,9, 12-Octadecatrienyloxy) acetic acid] | < 30 | – | – | 38 | –
